# Experimental data published in patent publication US20240336602A1 (Katholieke Universiteit Leuven, priority 2020, published 2024).
# Target: T1, mouse TRPM3a2 (mTRPM3) ion channel (Mus musculus, UniProt J9SQF3)
# T1 construct: expressed in transfected cells; host or cells: flip-in HEK293
# Assay: TRPM3 ion channel driven Ca2+ uptake, Fluo-4 AM assay (PS-stimulated, overexpressing flip-in HEK293 cells)
# Type: cell-based
# In short: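 Flip-in HEK293 cells overexpressing mTRPM3α2, loaded with Fluo-4 AM, were added to wells with compound plus 50 μM pregnenolone sulfate in Ca2+-containing Krebs buffer and read immediately (ex 485/em 535 nm). Percent inhibition was scaled between PS-plus-vehicle and positive-control-inhibitor signals.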
# [1] = PS (50 μM) stimulated, cpd 001-199
# [2] = PS (50 μM) stimulated Ca2+ influx, HEK293, cpds 300-399
# [3] = PS (50 μM) stimulated, cpds. 667-751
# [4] = PS (50 μM) stimulated, cpds. 600-666
# [5] = PS (50 μM) stimulated, cpds. 400-499
# [6] = PS (50 μM) stimulated, cpds. 500-599
# T1 sequence (J9SQF3 1-1709 isoform J9SQF3-12): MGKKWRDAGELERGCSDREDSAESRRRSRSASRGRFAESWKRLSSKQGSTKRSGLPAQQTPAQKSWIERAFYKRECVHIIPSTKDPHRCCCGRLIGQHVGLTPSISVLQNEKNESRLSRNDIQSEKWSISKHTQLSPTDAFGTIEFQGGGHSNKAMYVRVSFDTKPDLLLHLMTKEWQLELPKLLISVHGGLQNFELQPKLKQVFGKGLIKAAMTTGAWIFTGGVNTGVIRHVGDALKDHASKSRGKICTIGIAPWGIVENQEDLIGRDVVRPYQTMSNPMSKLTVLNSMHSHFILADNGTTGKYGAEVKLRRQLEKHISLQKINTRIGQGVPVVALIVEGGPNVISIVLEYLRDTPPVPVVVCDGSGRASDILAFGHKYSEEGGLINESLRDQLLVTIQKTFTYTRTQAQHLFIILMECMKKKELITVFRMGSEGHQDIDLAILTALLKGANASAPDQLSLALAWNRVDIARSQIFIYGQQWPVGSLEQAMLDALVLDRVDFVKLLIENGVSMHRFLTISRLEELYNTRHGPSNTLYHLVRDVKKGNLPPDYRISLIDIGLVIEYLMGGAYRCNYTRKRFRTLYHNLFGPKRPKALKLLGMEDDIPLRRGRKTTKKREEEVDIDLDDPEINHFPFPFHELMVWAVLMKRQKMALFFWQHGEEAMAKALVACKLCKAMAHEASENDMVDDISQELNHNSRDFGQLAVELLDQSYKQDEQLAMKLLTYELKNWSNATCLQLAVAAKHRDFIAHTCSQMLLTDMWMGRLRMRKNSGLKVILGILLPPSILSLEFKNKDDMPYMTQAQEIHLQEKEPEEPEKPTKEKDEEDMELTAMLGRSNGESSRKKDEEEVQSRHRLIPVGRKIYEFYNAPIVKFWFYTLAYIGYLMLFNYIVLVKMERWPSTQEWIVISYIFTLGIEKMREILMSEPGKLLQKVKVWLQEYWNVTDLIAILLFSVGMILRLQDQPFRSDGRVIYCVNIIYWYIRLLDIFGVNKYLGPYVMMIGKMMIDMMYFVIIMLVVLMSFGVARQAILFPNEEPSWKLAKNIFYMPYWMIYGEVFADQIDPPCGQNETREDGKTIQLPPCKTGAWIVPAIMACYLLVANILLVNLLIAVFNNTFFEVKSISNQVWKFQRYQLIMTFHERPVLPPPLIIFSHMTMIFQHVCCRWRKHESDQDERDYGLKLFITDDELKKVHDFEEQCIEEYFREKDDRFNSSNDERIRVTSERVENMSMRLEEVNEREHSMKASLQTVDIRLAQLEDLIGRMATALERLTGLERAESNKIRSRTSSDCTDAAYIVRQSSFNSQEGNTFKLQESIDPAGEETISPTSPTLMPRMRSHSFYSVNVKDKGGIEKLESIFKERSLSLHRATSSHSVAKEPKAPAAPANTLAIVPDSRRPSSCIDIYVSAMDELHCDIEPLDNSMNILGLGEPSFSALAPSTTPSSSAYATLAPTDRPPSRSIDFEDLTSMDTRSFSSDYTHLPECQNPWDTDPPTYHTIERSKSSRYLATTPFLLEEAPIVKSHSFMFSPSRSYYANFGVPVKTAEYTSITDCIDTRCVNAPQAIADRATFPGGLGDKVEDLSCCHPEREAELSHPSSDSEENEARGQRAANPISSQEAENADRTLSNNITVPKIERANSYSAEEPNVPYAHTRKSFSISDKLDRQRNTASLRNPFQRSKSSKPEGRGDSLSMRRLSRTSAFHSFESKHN
smiles,measurement,setting,value
"Cc1oc2ccc(OCc3cnccc3Cl)cc2c1C(=O)NC1CCN(C(=O)OC(C)(C)C)CC1(F)F (centres unmarked) [cpd 093, tert-butyl 4-(5-((4-chloropyridin-3-yl)methoxy)-2-methylbenzofuran-3-carboxamido)-3,3-difluoro-piperidine-1-carboxylate]",IC50,[1],1 to 20 µM
Cc1oc2ccc(OCc3cccnc3O)cc2c1C(=O)NC1COCC1O (centres unmarked) [350 - En 1],IC50,[2],≤ 1 µM
"Cc1ncsc1COc1ccc2oc(C)c(C(=O)NC(Cn3cncn3)C(N)=O)c2c1 (single isomer, unassigned) [729 - En 1]",IC50,[3],≤ 1 µM
"Cc1oc2ccc(OCc3cccnc3C(F)(F)F)cc2c1C(=O)n1ccc(N)n1 [cpd 178, (3-amino-1H-pyrazol-1-yl)(2-methyl-5-((2-(trifluoromethyl)pyridin-3-yl)methoxy)benzofuran-3-yl)methanone]",IC50,[1],1 to 20 µM
"Cc1oc2ccc(OCc3ccnn3CC(F)F)cc2c1C(=O)NC1(C(N)=O)CCOC1 (single isomer, unassigned) [740 - En 2]",IC50,[3],≤ 1 µM
"CCOc1ncccc1COc1ccc2oc(C)c(C(=O)NC3CCN(CCO)C3=O)c2c1 (single isomer, unassigned) [348 - En 1]",IC50,[2],≤ 1 µM
"Cc1oc2c(F)cc(OCc3cccnc3O)cc2c1C(=O)NC1(CO)CCOCC1 [cpd 368, 7-fluoro-N-(4-(hydroxymethyl)tetrahydro-2H-pyran-4-yl)-5-((2-hydroxypyridin-3-yl)methoxy)-2-methylbenzofuran-3-carboxamide]",IC50,[2],1 to 20 µM
"Cc1oc2ccc(OCc3ccnc(O)c3)cc2c1C(=O)NC1(CO)CCOCC1 [cpd 628, N-(4-(hydroxymethyl)tetrahydro-2H-pyran-4-yl)-5-((2-hydroxypyridin-4-yl)methoxy)-2-methylbenzofuran-3-carboxamide]",IC50,[4],1 to 20 µM
"Cc1oc2ccc(OCc3nccn3C)cc2c1C(=O)NC1CCN(CCO)C1=O (single isomer, unassigned) [403 - En 2]",IC50,[5],≥ 20 µM
Cc1oc2ccc(OCc3nccn3C)cc2c1C(=O)NC1COCC1O (centres unmarked) [654 - En 2],IC50,[4],1 to 20 µM
"Cc1ncsc1COc1ccc2oc(C(F)F)c(C(=O)NC3(CO)COC3)c2c1 [cpd 309, 2-(difluoromethyl)-N-(3-(hydroxymethyl)oxetan-3-yl)-5-((4-methylthiazol-5-yl)methoxy)benzofuran-3-carboxamide]",IC50,[2],1 to 20 µM
"CNC(=O)C(CO)NC(=O)c1c(C)oc2ccc(OCc3ccccn3)cc12 (single isomer, unassigned) [601 - En 2]",IC50,[4],≤ 1 µM
"Cc1oc2ccc(OCc3ccnn3C)cc2c1C(=O)NC1(CO)CCNC1=O (single isomer, unassigned) [733 - En 1]",IC50,[3],≤ 1 µM
"Cc1ncsc1COc1ccc2oc(C)c(C(=O)NC3CN(C)CC(F)(F)C3)c2c1 (single isomer, unassigned) [163 - En 1]",IC50,[1],≤ 1 µM
"Cc1ncsc1COc1ccc2oc(C)c(C(=O)NC3CCN(CCO)C3=O)c2c1F (single isomer, unassigned) [326 - En 2]",IC50,[2],1 to 20 µM
"Cc1ncsc1COc1ccc2oc(C)c(C(=O)NC(CO)CN3CCOCC3)c2c1 (single isomer, unassigned) [488 - En 1]",IC50,[5],≤ 1 µM
"Cc1ncsc1COc1ccc2oc(C)c(C(=O)NC3(CO)CCNC3=O)c2c1 (single isomer, unassigned) [518 - En 1]",IC50,[6],≤ 1 µM
"Cc1ncc(COc2ccc3oc(C)c(C(=O)NC4(CO)CCCNC4=O)c3c2)o1 (single isomer, unassigned) [511 - En 2]",IC50,[6],1 to 20 µM
"Cc1ncc(COc2ccc3oc(C)c(C(=O)NC4COCC4O)c3c2)s1 (single isomer, unassigned) [386 - En 2]",IC50,[2],1 to 20 µM
"Cc1oc2c(C)cc(OCc3cccnc3C(F)(F)F)cc2c1C(=O)NC1CCNCC1(F)F (single isomer, unassigned) [183 - En 1, N-(3,3-difluoropiperidin-4-yl)-2,7-dimethyl-5-((2-(trifluoromethyl)pyridin-3-yl)methoxy)benzofuran-3-carboxamide]",IC50,[1],1 to 20 µM
"Cc1ccc(COc2ccc3oc(C)c(C(=O)NC4(CO)CCCNC4=O)c3c2)cn1 (single isomer, unassigned) [514 - En 1]",IC50,[6],≤ 1 µM
"Cc1ncc(COc2ccc3oc(C)c(C(=O)NC4COCC4O)c3c2)s1 (single isomer, unassigned) [388 - En 1]",IC50,[2],≤ 1 µM
"Cc1oc2ccc(OCc3nccn3C)cc2c1C(=O)NC(CO)C(N)=O (single isomer, unassigned) [451 - En 1]",IC50,[5],≤ 1 µM
"Cc1ncsc1COc1ccc2oc(C)c(C(=O)NC3(C(N)=O)CCOC3)c2c1 (single isomer, unassigned) [593 - En 1]",IC50,[6],≤ 1 µM
"Cc1ncsc1COc1ccc2oc(C)c(C(=O)NC3(CO)CCOCC3)c2c1C [cpd 603, N-(4-(hydroxymethyl)tetrahydro-2H-pyran-4-yl)-2,4-dimethyl-5-((4-methylthiazol-5-yl)methoxy)benzofuran-3-carboxamide]",IC50,[4],1 to 20 µM
"Cc1oc2ccc(OCc3ccccn3)cc2c1C(=O)NC1CCN(C)CC1 [cpd 039, 2-methyl-N-(1-methylpiperidin-4-yl)-5-(pyridin-2-ylmethoxy)benzofuran-3-carboxamide]",IC50,[1],1 to 20 µM
"Cc1ncc(COc2ccc3oc(C)c(C(=O)NC4(C(N)=O)CCCOC4)c3c2)s1 (single isomer, unassigned) [590 - En 1]",IC50,[6],≤ 1 µM
"Cc1cncc(COc2ccc3oc(C)c(C(=O)N[C@H]4CCN(C(=O)OC(C)(C)C)C4)c3c2)c1 [cpd 073, tert-butyl (S)-3-(2-methyl-5-((5-methylpyridin-3-yl)methoxy)benzofuran-3-carboxamido)pyrrolidine-1-carboxylate]",IC50,[1],1 to 20 µM
"Cc1oc2ccc(OCc3nccn3C)cc2c1C(=O)NC(CO)C(N)=O (single isomer, unassigned) [451 - En 2]",IC50,[5],1 to 20 µM
"Cc1oc2ccc(OCc3ccccn3)cc2c1C(=O)NC1(CO)CCNC1=O (single isomer, unassigned) [520 - En 1]",IC50,[6],≤ 1 µM
"Cc1ncc(COc2ccc3oc(C)c(C(=O)NC4(C(N)=O)CCOC4)c3c2)s1 (single isomer, unassigned) [592 - En 1]",IC50,[6],≤ 1 µM
"Cc1oc2ccc(OCc3cccnc3O)cc2c1C(=O)NC1(CO)CCNC1=O (single isomer, unassigned) [521 - En 1]",IC50,[6],≤ 1 µM
"Cc1oc2ccc(OCc3ncn(C)n3)cc2c1C(=O)NC1(CO)CCOCC1 [cpd 606, N-(4-(hydroxymethyl)tetrahydro-2H-pyran-4-yl)-2-methyl-5-((1-methyl-1H-1,2,4-triazol-3-yl)methoxy)benzofuran-3-carboxamide]",IC50,[4],1 to 20 µM
"Cc1oc2ccc(OCc3cccnc3C(F)(F)F)cc2c1C(=O)NC1CCN(C(=O)OC(C)(C)C)CC1(F)F (centres unmarked) [cpd 098, tert-butyl 3,3-difluoro-4-(2-methyl-5-((2-(trifluoromethyl)pyridin-3-yl)methoxy)benzofuran-3-carboxamido)piperidine-1-carboxylate]",IC50,[1],1 to 20 µM
"Cc1ncsc1COc1ccc2oc(C)c(C(=O)N(C)C3(C#N)COC3)c2c1 [compound 599, N-(3-cyanooxetan-3-yl)-N,2-dimethyl-5-((4-methylthiazol-5-yl)methoxy)benzofuran-3-carboxamide]",IC50,[6],1 to 20 µM
"Cc1ncsc1COc1ccc2oc(C)c(C(=O)NC3CC4(CNC4)C3)c2c1 [cpd 190, 2-methyl-5-((4-methylthiazol-5-yl)methoxy)-N-(2-azaspiro[3.3]heptan-6-yl)benzofuran-3-carboxamide]",IC50,[1],1 to 20 µM
"Cc1oc2ccc(OCc3cccnc3C(F)(F)F)cc2c1C(=O)N(CCO)C1CCC1 [cpd 659, N-cyclobutyl-N-(2-hydroxyethyl)-2-methyl-5-((2-(trifluoromethyl)pyridin-3-yl)methoxy)benzofuran-3-carboxamide]",IC50,[4],1 to 20 µM
"Cc1ncsc1COc1ccc2oc(C)c(C(=O)NC3CCN(C)CC3(F)F)c2c1 (single isomer, unassigned) [110 - En 1]",IC50,[1],≤ 1 µM
Cc1ncsc1COc1ccc2oc(C)c(C(=O)NC(COC(F)F)C(N)=O)c2c1 (centres unmarked) [448 - En 1],IC50,[5],≤ 1 µM
"Cc1oc2ccc(OCc3nccn3C)cc2c1C(=O)NC1(C(N)=O)COC1 [cpd 578, N-(3-carbamoyloxetan-3-yl)-2-methyl-5-((1-methyl-1H-imidazol-2-yl)methoxy)benzofuran-3-carboxamide]",IC50,[6],1 to 20 µM
"Cc1oc2ccc(OCc3nccs3)cc2c1C(=O)NC1CCN(CCO)C1=O (single isomer, unassigned) [407 - En 2]",IC50,[5],1 to 20 µM
"Cc1ncc(COc2ccc3oc(C)c(C(=O)NC(CO)CN(C)C)c3c2)s1 (single isomer, unassigned) [412 - En 1]",IC50,[5],≤ 1 µM
Cc1ncc(COc2ccc3oc(C)c(C(=O)NC(C)C(N)=O)c3c2)s1 (centres unmarked) [434 - En 2],IC50,[5],≤ 1 µM
Cc1cc(COc2ccc3oc(C)c(C(=O)N[C@@H](CO)C(N)=O)c3c2)on1 [cpd 674],IC50,[3],≤ 1 µM
"Cc1oc2ccc(OCc3cccnc3)cc2c1C(=O)O [cpd 006, 2-methyl-5-(pyridin-3-ylmethoxy)benzofuran-3-carboxylic acid]",IC50,[1],1 to 20 µM
Cc1oc2ccc(OCc3cccnc3C(F)(F)F)cc2c1C(=O)O,IC50,[1],1 to 20 µM
"Cc1oc2ccc(OCc3nccc4ccccc34)cc2c1C(=O)NC1CCN(C)CC1 [cpd 059, 5-(isoquinolin-1-ylmethoxy)-2-methyl-N-(1-methylpiperidin-4-yl)benzofuran-3-carboxamide]",IC50,[1],1 to 20 µM
"Cc1ncsc1COc1ccc2oc(C)c(C(=O)O)c2c1 [cpd 102, 2-methyl-5-((4-methylthiazol-5-yl)methoxy)benzofuran-3-carboxylic acid]",IC50,[1],1 to 20 µM
"Cc1oc2ccc(OCc3cccnc3C(F)(F)F)cc2c1C(=O)NC1(CO)CCCNC1=O (single isomer, unassigned) [510 - En 1]",IC50,[6],≤ 1 µM
"Cc1oc2ccc(OCc3cccnn3)cc2c1C(=O)NC1(CO)CCNC1=O (single isomer, unassigned) [734 - En 1]",IC50,[3],≤ 1 µM
